The source of these data is patent US20250109157A1, “COMPOUNDS AND METHODS FOR TREATMENT OF VIRAL INFECTIONS” (Gilead Sciences, Inc., priority 2023, published 2025).

For orientation: IC50 means the concentration that gives 50% inhibition. A lower IC50 goes with inhibition by little substance. As usually defined, the EC50 is the concentration that produces a half-maximal response. For orientation: CC50 means the concentration giving 50% cytotoxicity.

The target in one data set is RSV RNP complexes (Human respiratory syncytial virus A, UniProt P28887). Nature of the data set: RSV RNP Polymerase IC50 transcription assay. It is filed as biochemical. As to conditions: crude RSV RNP complexes, 90 min at 30° C. As to the method: Transcription reactions contained 25 μg of crude RSV RNP complexes in 30 μL of reaction buffer (50 mM TRIS-acetate [pH 8.0], 120 mM potassium acetate, 5% glycerol, 4.5 mM MgCl2, 3 mM DTT, 2 mM EGTA, 50 μg/mL BSA, 2.5 U RNasin, 20 μM ATP, 100 μM GTP, 100 μM UTP, 100 μM CTP, and 1.5 μCi [α-^32P] ATP [3,000 Ci/mmol]). The radiolabeled nucleotide used in the transcription assay was selected to match the nucleotide analog being evaluated for inhibition of RSV RNP transcription. To determine whether nucleotide analogs inhibited RSV RNP transcription, compounds were added using a 6-step serial dilution in 5-fold increments. After a 90 min incubation at 30° C., the RNP, reactions were stopped with 350 μL of Qiagen RLT lysis buffer, and the RNA was purified using a Qiagen RNeasy 96 kit. Purified RNA was denatured in RNA sample loading buffer at 65° C. for 10 min and run on a 1.2% agarose/MOPS gel containing 2M formaldehyde. The agarose gel was dried, exposed to a Storm phosphorimaging screen, and developed using a Storm phosphorimager.

A further data set deals with DENV2 NS5 (Dengue virus type 2, UniProt P14340). Kind of data set: DENGUE sshRNA Polymerase IC50. It is filed as biochemical. The note with it: 100 nM DENV2 NS5, sshRNA template, 90 minutes at 30° C. As for the experimental part:
A 244 nucleotide secondary structureless heteropolymeric RNA (sshRNA) with sequence 5′-(UCAG)20(UCCAAG)14(UCAG)20-3′ (SEQ ID NO: 1) is used as the template with 5′-CUG-3′ primer in the DENV2-NS5 polymerase assay. Six two-fold dilutions of compounds starting from 200 nM and no inhibitor control are plated in 96-well plates. […] Enzyme mix is added to compound dilutions and reactions initiated by the addition of a mixture containing 20 μM of three natural NTP plus 2 μM of analog:base matched competing natural NTP containing 1:100 α-^33P-NTP. After 90 minutes at 30° C., 5 μL of the reaction mixtures are spotted on DE81 anion exchange paper. Filter papers are washed three times with Na2HPO4 (125 mM, pH 9) for 5 minutes, rinsed with water and ethanol, then air-dried and exposed to phosphorimager. Synthesized RNA is quantified using Typhoon Trio Imager and Image Quant TL Software and reaction rates are calculated by linear regression using GraphPad Prism 5.0. IC50 values are calculated in Prism by non-linear regression analysis using the dose-response (variable slope) equation (four-parameter logistic equation): Y=Bottom+(Top−Bottom)/(1+10^((LogIC50−X)*HillSlope)).

For another data set, the target named is POLRMT (Homo sapiens, UniProt O00411). Kind of data set: MTRNAP SNI single nucleotide incorporation. As to conditions: 376 nM POLRMT, 500 μM NTP analog. It is filed as biochemical. As for the experimental part: A mixture of MTCN buffer (50 mM MES, 25 mM Tris-HCl, 25 mM CAPS, and 50 mM NaCl, pH 7.5), 200 nM 5′-32P-R12/D18, 10 mM MgCl2, 1 mM DTT, and 376 nM POLRMT was preincubated at 30° C. for 1 min. The reaction was started by addition of 500 μM (final) natural NTP or NTP analogs. At selected time points, the reaction mixture was removed and quenched with gel loading buffer containing 100 mM EDTA, 80% formamide, and bromophenol blue, and heated at 65° C. for 5 min. The samples were run on a 20% polyacrylamide gel (8 M urea), and the product formation was quantified using Typhoon Trio Imager and Image Quant TL Software (GE Healthcare, Piscataway, NJ). The rate of single nucleotide incorporation by mt RNA pol was calculated by fitting the product formation using the single exponential equation: [R13]=A(1−e−kt), where [R13] represents the amount (in nM) of the elongated product formed, t represents the reaction time, k represents the observed rate, and A represents the amplitude of the exponential.

In the next data set the test system is RSV strain A2. Nature of the data set: RSV EC50 HEp-2 cytopathic cell protection assay. It is filed as cell-based. The note with it: human respiratory syncytial virus, 96 h; HEp-2 cells, RSV strain A2, 4 days, Cell TiterGlo; read-out: RSV EC50 HEp2. Background: Protection from cytopathic effect is a common read-out in antiviral testing.
A short description of the next data set: HEp-2 CC50 cytotoxicity. In kind it is cell-based. As to conditions: human; HEp-2 cells, 4-5 days, CellTiter Glo; read-out: HEp2 CC50. As for the experimental part:
(§1) HEp-2 (1.5×10^3 cells/well) or MT4 (2×10^3 cells/well) cells were plated in 384-well plates and incubated with the appropriate medium containing 3-fold serially diluted compound ranging from 15 nM to 100,000 nM. Cells were cultured for 4-5 days at 37° C. Following the incubation, the cells were allowed to equilibrate to 25° C., and cell viability was determined by adding CellTiter Glo viability reagent. The mixture was incubated for 10 min, and the luminescence signal was quantified using an Envision plate reader. Cell lines were not authenticated and were not tested for mycoplasma as part of routine use in cytotoxicity assays.
On the technique in general: In ATP-based viability assays light output follows the ATP content of the culture.

A short description of a further data set: MT4 CC50 cytotoxicity. As to conditions: human; MT4 cells, 4-5 days, CellTiter Glo. It is filed as cell-based. As for the experimental part: as §1
Data set [1] has as its system Dengue serotype 2 New Guinea C (NGC) strain. Kind of data set: DENV EC50 Huh7 qPCR assay. In kind it is cell-based. The note with it: Dengue virus, Huh-7, Huh7 cells, DENV2 NGC, MOI 0.1, 48 hours. As for the experimental part:
Huh7 (Human hepatocarcinoma 7) cells were maintained in 10% FCS-containing DMEM complete media. On the day of the assay, cells were trypsinized (0.1% Trypsin-EDTA), washed and infected for 2 hours in serum-free DMEM with Dengue serotype 2 New Guinea C (NGC) strain at MOI=0.1 with gentle agitation at 37° C. After 2 hours, cells were washed with serum-free media and suspended in 10% FCS-containing DMEM (Gibco, supplemented with sodium pyruvate, NEAA, Penicillin-Streptomycin). 10^5 cells were plated in triplicate in 96-well plates with compounds dispensed at graded doses (Hewlett-Packard D300 Digital Dispenser). All wells were normalized to 0.25% DMSO. At 48 hours, cells were washed with 1×PBS and all supernatants removed. Total RNA was extracted using RNEasy 96 plates (Qiagen) and used to generate first-strand cDNA using XLT cDNA 5× Supermix (QuantaBio). cDNA was used as a template in a Taqman qPCR duplex reaction specific to DENV2 viral and GAPDH gene expression. EC50 values were determined using Prism Graphpad software, with normalization to a positive control and no compound negative control wells.

The next data set relates to SARS-CoV2-Nluc viruses. Kind of data set: microbe, parasite or virus in culture. It is filed as cell-based, SARS-CoV-2. The note with it: Severe acute respiratory syndrome coronavirus 2, A549, 48 h.
Another data set can be described thus: Huh7 CC50 cytotoxicity. As to conditions: human, Huh7 cells, CellTiter-Glo. In kind it is cell-based. As for the experimental part:
Human hepatocarcinoma 7 (Huh7) cells were maintained in 10% FCS-containing complete DMEM. On day of assay, cells were trypsinized with 0.1% Trypsin-EDTA, washed and cultured in triplicate at 1-2×10^4 cells/well in 96-well plates with compounds dispensed at graded doses (Hewlett-Packard D300 Digital Dispenser). All wells were normalized to 0.25% DMSO. After 48 h, CellTiter-Gio (Promega) was added and incubated for 10 minutes at room temp before reading on a luminometer. % viability curves were calculated against no compound and no cell control wells. CC50 values (compound concentration for reducing 50% of luminescence signal as a measure of cell viability) were determined using Prism Graphpad software.

A short description of data set [2]: A549-hACE2 CC50 cytotoxicity. In kind it is cell-based. As to conditions: human, A549-hACE2 cells, CellTiter-Glo. As to the method: The cytotoxicity of compounds was determined in A549-hACE2 cells in the following manner. Compounds (200 nL) were spotted onto 384-well Grenier plates prior to seeding 5000 A549-hACE2 cells/well in a volume of 40 μL culture medium. The plates were incubated at 37° C. for 48 hours with 5% CO2. On day 2, 40 μL of CellTiter-Glo (Promega) was added and mixed 5 times. Plates were read for luminescence on an Envision (PerkinElmer) and the CC50 values were calculated using a nonlinear regression model (four parameters).

The subject of the next data set is Zika virus strain MR766. Kind of data set: Zika EC50 Huh7 XTT assay. The note with it: Huh-7, read-out: Zika EC50 Huh7.
In the next data set the test system is MERS-CoV. Kind of data set: microbe, parasite or virus in culture. In kind it is cell-based. As to conditions: Middle East respiratory syndrome-related coronavirus, Vero 76, 72 h, read-out: MERS CoV EC50.

POLRMT, sequence (O00411 42-1230): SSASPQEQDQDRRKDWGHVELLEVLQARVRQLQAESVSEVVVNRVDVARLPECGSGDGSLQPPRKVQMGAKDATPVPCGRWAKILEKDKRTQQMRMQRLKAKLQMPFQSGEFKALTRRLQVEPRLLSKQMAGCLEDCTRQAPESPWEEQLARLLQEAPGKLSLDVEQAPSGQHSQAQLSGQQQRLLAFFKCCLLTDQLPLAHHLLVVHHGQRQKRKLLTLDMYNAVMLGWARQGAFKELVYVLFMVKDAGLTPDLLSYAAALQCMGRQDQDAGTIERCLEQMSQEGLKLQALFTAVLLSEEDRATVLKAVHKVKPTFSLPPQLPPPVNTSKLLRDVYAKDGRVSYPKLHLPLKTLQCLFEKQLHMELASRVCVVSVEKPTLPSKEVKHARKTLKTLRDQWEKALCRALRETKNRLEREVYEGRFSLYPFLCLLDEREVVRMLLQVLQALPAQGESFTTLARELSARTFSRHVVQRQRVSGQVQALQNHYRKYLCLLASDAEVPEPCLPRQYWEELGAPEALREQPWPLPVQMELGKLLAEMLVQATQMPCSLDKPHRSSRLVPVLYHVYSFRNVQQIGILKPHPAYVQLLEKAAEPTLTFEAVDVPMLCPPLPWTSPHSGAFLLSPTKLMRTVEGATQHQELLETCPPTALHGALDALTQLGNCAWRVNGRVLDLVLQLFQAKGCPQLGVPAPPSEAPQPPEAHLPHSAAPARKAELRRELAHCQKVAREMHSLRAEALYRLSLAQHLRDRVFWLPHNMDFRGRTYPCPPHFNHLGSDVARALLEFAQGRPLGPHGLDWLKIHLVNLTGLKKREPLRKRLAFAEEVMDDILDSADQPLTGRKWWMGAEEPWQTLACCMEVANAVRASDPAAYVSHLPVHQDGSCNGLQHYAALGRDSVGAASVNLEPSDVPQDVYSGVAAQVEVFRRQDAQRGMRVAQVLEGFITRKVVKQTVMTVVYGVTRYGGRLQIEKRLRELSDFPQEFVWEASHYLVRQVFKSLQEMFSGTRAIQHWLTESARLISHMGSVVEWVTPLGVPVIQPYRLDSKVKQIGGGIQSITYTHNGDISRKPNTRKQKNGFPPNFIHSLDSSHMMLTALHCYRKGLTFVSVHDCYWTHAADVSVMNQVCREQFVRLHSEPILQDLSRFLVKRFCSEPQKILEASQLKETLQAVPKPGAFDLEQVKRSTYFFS
RSV RNP complexes, sequence (P03421 whole entry): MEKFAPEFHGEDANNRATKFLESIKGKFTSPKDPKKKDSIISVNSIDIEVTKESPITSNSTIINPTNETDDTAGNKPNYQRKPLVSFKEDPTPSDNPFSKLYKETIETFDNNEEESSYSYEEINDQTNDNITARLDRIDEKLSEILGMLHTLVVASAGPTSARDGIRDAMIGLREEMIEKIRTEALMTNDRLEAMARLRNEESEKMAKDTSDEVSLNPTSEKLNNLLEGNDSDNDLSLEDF
RSV RNP complexes, sequence (P28887 whole entry): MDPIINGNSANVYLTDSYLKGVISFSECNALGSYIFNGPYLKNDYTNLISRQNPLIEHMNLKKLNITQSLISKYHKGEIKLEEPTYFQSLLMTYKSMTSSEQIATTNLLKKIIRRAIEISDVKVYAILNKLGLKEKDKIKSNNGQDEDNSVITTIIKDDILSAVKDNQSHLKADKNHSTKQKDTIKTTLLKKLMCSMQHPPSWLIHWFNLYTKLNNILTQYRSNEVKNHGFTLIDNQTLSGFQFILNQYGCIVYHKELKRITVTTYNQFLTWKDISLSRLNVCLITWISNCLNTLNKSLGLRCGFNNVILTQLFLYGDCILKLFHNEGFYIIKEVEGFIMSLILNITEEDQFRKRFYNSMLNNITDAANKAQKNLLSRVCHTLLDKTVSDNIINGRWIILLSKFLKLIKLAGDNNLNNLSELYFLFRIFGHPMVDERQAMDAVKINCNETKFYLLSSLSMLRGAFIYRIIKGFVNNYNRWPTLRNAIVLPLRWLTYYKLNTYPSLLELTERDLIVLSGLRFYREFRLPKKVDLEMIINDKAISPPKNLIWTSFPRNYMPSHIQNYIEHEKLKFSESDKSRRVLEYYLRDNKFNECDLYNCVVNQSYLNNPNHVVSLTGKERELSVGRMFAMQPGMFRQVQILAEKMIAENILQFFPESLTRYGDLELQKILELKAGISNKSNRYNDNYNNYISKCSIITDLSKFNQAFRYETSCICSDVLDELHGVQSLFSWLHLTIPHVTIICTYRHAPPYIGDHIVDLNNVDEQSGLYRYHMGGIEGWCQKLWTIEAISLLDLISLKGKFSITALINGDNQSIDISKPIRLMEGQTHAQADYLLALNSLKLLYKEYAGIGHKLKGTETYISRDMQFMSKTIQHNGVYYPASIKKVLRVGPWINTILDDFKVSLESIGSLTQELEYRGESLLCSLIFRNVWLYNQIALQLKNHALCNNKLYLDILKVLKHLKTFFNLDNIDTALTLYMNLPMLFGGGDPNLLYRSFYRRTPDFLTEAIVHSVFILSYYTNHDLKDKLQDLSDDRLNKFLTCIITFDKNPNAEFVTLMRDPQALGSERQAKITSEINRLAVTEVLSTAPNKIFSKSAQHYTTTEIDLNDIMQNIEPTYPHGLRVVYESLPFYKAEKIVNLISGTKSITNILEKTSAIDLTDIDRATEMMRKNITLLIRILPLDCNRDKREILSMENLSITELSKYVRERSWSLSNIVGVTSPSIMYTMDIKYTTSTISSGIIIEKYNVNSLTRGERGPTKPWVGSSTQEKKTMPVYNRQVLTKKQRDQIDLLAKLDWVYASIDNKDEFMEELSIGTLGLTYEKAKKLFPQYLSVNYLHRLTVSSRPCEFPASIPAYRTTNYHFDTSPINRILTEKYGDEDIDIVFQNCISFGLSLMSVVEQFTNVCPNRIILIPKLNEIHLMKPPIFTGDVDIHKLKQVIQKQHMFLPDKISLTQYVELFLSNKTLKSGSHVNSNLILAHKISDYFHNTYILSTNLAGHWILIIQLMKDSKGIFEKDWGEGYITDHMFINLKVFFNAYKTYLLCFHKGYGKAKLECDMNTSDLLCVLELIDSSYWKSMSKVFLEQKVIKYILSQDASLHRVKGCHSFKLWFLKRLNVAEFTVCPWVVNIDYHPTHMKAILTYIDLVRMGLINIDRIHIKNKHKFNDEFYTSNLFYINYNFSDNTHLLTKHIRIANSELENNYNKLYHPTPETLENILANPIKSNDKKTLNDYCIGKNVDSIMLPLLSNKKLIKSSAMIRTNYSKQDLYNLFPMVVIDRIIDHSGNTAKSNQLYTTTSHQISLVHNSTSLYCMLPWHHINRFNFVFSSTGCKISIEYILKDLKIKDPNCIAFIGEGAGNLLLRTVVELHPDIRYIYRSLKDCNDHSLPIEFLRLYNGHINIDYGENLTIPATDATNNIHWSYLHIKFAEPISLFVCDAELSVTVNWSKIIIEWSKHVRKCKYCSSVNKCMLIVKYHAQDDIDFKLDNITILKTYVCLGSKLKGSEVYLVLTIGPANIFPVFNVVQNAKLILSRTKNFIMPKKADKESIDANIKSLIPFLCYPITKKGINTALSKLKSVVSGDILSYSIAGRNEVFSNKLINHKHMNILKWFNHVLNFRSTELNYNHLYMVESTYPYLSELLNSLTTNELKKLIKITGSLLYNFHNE

In the case of `N#C[C@@]1(c2csc3c(N)ncnc23)O[C@H](COP(=O)(O)OP(=O)(O)OP(=O)(O)O)[C@@H](O)[C@H]1O` [Compound C2, ((2R,3S,4R,5R)-5-(4-aminothieno[3,2-d]pyrimidin-7-yl)-5-cyano-3,4-dihydroxytetrahydrofuran-2-yl)methyl tetrahydrogen triphosphate], the IC50 against RSV RNP complexes worked out at 2.91 µM; on DENV2 NS5 it was 8.96 µM. On POLRMT, the “MTRNAP SNI (% incorporation)” value is on record as 0.61 % incorporation.
As to `CC(C)(C)C(=O)SCCOP(=O)(OCCSC(=O)C(C)(C)C)OC[C@H]1O[C@@](C#N)(c2csc3c(N)ncnc23)[C@H](O)[C@@H]1O` [Compound C4], in the data set on RSV strain A2, the EC50 stood at 2.7 µM. Moreover, the values for the CC50 in the data set “HEp-2 CC50 cytotoxicity” and in the data set “MT4 CC50 cytotoxicity” were over 50 µM and 11.1 µM, respectively.
Take `CCC(CC)COC(=O)[C@H](C)NP(=O)(OC[C@H]1O[C@@](C#N)(c2csc3c(N)ncnc23)[C@H](O)[C@@H]1O)Oc1ccccc1` (stereo partly drawn) [Compound C3, 2-ethylbutyl ((((2R,3S,4R,5R)-5-(4-aminothieno[3,2-d]pyrimidin-7-yl)-5-cyano-3,4-dihydroxytetrahydrofuran-2-yl)methoxy)(phenoxy)phosphoryl)-L-alaninate]: the EC50 with RSV strain A2 amounted to 0.435 µM; in data set [1] it was 1.85 µM; in the data set on SARS-CoV2-Nluc viruses it was 1.19 µM; with Zika virus strain MR766, 6.94 µM. The CC50 in “HEp-2 CC50 cytotoxicity” was over 37.2 µM; in the data set “MT4 CC50 cytotoxicity” it was 19 µM. Moreover, the CC50 at 48 h in “Huh7 CC50 cytotoxicity” is over 25 µM; in [2], over 50 µM.
For `N#C[C@@]1(c2csc3c(N)ncnc23)O[C@H](CO)[C@@H](O)[C@H]1O` [Compound C1, (2R,3R,4S,5R)-2-(4-aminothieno[3,2-d]pyrimidin-7-yl)-3,4-dihydroxy-5-(hydroxymethyl)tetrahydrofuran-2-carbonitrile], the EC50 amounted to 3.1 µM with RSV strain A2 and 2.2 µM in the data set on MERS-CoV. Moreover, the CC50 was over 100 µM in the data set “HEp-2 CC50 cytotoxicity” and over 114 µM in the data set “MT4 CC50 cytotoxicity”.
